Laboratory results as given in US20240317735A1, “HYDROISOQUINOLINE OR HYDRONAPHTHYRIDINE COMPOUNDS FOR THE TREATMENT OF AUTOIMMUNE DISEASE” (Hoffmann-La Roche Inc., priority 2020, published 2024).

Each molecule was assayed against T1, human TLR8 (Homo sapiens, UniProt Q9NR97) (assay: HEK293-Blue-hTLR-8 cells assay (SEAP reporter, R848 stimulation)). Settings: HEK293-Blue-hTLR8 cells, R848, 20 hrs; read-out: HEK/hTLR8 IC50.
T1 construct: host or cells: HEK293 (HEK-Blue hTLR8)
T1 sequence (Q9NR97 27-1041): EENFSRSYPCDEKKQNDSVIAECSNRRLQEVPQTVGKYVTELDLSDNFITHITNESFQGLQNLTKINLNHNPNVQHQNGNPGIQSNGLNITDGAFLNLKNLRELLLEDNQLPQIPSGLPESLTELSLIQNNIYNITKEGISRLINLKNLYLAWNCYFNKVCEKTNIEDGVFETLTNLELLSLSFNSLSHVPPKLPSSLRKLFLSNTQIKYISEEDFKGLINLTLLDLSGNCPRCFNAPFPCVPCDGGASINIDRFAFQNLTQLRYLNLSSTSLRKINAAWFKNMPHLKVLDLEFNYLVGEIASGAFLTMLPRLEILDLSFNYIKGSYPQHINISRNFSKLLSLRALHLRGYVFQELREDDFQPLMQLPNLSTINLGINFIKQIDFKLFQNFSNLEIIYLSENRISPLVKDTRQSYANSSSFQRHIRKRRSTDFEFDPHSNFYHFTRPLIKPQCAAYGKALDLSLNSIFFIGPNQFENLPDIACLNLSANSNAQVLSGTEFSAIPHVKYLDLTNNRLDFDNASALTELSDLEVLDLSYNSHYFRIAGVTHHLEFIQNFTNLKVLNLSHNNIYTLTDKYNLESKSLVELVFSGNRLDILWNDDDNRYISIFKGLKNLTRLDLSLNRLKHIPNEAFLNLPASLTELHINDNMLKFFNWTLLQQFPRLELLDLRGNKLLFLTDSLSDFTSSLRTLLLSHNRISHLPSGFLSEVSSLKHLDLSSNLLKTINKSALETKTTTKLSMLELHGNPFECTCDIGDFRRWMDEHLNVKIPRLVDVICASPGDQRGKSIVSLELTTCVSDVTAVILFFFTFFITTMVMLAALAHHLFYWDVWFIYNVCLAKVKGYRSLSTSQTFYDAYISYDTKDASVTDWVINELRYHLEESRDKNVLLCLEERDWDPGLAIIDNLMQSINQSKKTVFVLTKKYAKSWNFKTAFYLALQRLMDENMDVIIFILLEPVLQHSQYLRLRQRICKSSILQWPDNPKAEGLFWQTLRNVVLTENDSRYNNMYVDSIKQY
Type: cell-based
In short: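 HEK293-Blue hTLR8 cells with NF-κB/AP-1-driven SEAP reporter incubated 20 h at 37 °C with serially diluted compound (1% DMSO) and R848 stimulus (60 μM stock). Supernatant SEAP measured with QUANTI-Blue (2 h, 37 °C) by absorbance at 620–655 nm; antagonism read as reduced reporter signal.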

Point of comparison: `Cc1cc(N2Cc3cnc(N4CCNC5(CC5)C4)cc3[C@@H](C)C2)c2cnn(C)c2n1` [Example 75, (4R)-6-(4,7-diazaspiro[2.5]octan-7-yl)-2-(1,6-dimethylpyrazolo[3,4-b]pyridin-4-yl)-4-methyl-3,4-dihydro-1H-2,7-naphthyridine], IC50 13 nM. Against it:
- CO[C@@H]1CN(c2ccc3c(n2)[C@@H](C)CN(c2cc(C)nc4c2cnn4C)C3)C[C@H]1N [Example 63, (3R,4R)-4-methoxy-1-[(8S)-6-(1,6-dimethylpyrazolo[3,4-b]pyridin-4-yl)-8-methyl-7,8-dihydro-5H-1,6-naphthyridin-2-yl]pyrrolidin-3-amine] — within 1.5-fold, 16 nM
- Cc1cc(N2Cc3ccc(OC4CCNCC4)nc3[C@@H](C)C2)c2cnn(C)c2n1 [Example 64, (8S)-6-(1,6-dimethylpyrazolo[3,4-b]pyridin-4-yl)-8-methyl-2-(4-piperidyloxy)-7,8-dihydro-5H-1,6-naphthyridine] — 3.2-fold lower, 4 nM
- CO[C@H]1CN(c2ccc3c(n2)[C@@H](C)CN(c2cc(C)nc4c2cnn4C)C3)CC[C@@H]1N [Example 65, (3S,4S)-3-methoxy-1-[(8S)-6-(1,6-dimethylpyrazolo[3,4-b]pyridin-4-yl)-8-methyl-7,8-dihydro-5H-1,6-naphthyridin-2-yl]piperidin-4-amine] — 13-fold lower, 1 nM
- Cc1cc(N2Cc3ccc(N4CCNCC4)nc3[C@@H](C)C2)c2cnn(C)c2n1 [Example 66, (8S)-6-(1,6-dimethylpyrazolo[3,4-b]pyridin-4-yl)-8-methyl-2-piperazin-1-yl-7,8-dihydro-5H-1,6-naphthyridine] — 13-fold lower, 1 nM
- Cc1cc(N2Cc3ccc(N4CCN(C)CC4)nc3[C@@H](C)C2)c2cnn(C)c2n1 [Example 67, (8S)-6-(1,6-dimethylpyrazolo[3,4-b]pyridin-4-yl)-8-methyl-2-(4-methylpiperazin-1-yl)-7,8-dihydro-5H-1,6-naphthyridine] — 13-fold lower, 1 nM
- Cc1cc(N2Cc3ccc(N4CC5(CNCCO5)C4)nc3[C@@H](C)C2)c2cnn(C)c2n1 [Example 68, 2-[(8S)-6-(1,6-dimethylpyrazolo[3,4-b]pyridin-4-yl)-8-methyl-7,8-dihydro-5H-1,6-naphthyridin-2-yl]-5-oxa-2,8-diazaspiro[3.5]nonane] — within 1.5-fold, 17 nM
- Cc1cc(N2Cc3ccc(N4C[C@@H](F)[C@@H](N)C4)nc3[C@@H](C)C2)c2cnn(C)c2n1 [Example 69, (3S,4R)-4-fluoro-1-[(8S)-6-(1,6-dimethylpyrazolo[3,4-b]pyridin-4-yl)-8-methyl-7,8-dihydro-5H-1,6-naphthyridin-2-yl]pyrrolidin-3-amine] — within 1.5-fold, 9 nM
- Cc1cc(N2Cc3ccc(N4CCOC5(CNC5)C4)nc3[C@@H](C)C2)c2cnn(C)c2n1 [Example 70, 8-[(8S)-6-(1,6-dimethylpyrazolo[3,4-b]pyridin-4-yl)-8-methyl-7,8-dihydro-5H-1,6-naphthyridin-2-yl]-5-oxa-2,8-diazaspiro[3.5]nonane] — 2.2-fold higher, 28 nM
- Cc1cc(N2Cc3ccc(N4CCNCC4)nc3[C@H](C)C2)c2cnn(C)c2n1 [Example 72, (8R)-6-(1,6-dimethylpyrazolo[3,4-b]pyridin-4-yl)-8-methyl-2-piperazin-1-yl-7,8-dihydro-5H-1,6-naphthyridine] — 6.5-fold lower, 2 nM
- CO[C@H]1CN(c2cc3c(cn2)CN(c2cc(C)nc4c2cnn4C)C[C@@H]3C)CC[C@@H]1N [Example 73, (3S,4S)-3-methoxy-1-[(5R)-7-(1,6-dimethylpyrazolo[3,4-b]pyridin-4-yl)-5-methyl-6,8-dihydro-5H-2,7-naphthyridin-3-yl]piperidin-4-amine] — 6.5-fold lower, 2 nM
- Cc1cc(N2Cc3cnc(N4CCNCC4)cc3[C@@H](C)C2)c2cnn(C)c2n1 [Example 74, (4R)-2-(1,6-dimethylpyrazolo[3,4-b]pyridin-4-yl)-4-methyl-6-piperazin-1-yl-3,4-dihydro-1H-2,7-naphthyridine] — 6.5-fold lower, 2 nM
- Cc1cc(N2Cc3cnc(O[C@@H]4C[C@H]5CNCCN5C4)cc3[C@@H](C)C2)c2cnn(C)c2n1 [Example 76, (4R)-2-(1,6-dimethylpyrazolo[3,4-b]pyridin-4-yl)-4-methyl-6-[[(7R,8aS)-1,2,3,4,6,7,8,8a-octahydropyrrolo[1,2-a]pyrazin-7-yl]oxy]-3,4-dihydro-1H-2,7-naphthyridine] — within 1.5-fold, 16 nM
- Cc1cc(N2Cc3cnc(OCCN4CCNCC4)cc3[C@@H](C)C2)c2cnn(C)c2n1 [Example 77, (4R)-2-(1,6-dimethylpyrazolo[3,4-b]pyridin-4-yl)-4-methyl-6-(2-piperazin-1-ylethoxy)-3,4-dihydro-1H-2,7-naphthyridine] — within 1.5-fold, 16 nM
- CO[C@@H]1CN(c2cc3c(cn2)CN(c2cc(C)nc4c2cnn4C)C[C@@H]3C)C[C@H]1N [Example 78, (3R,4R)-4-methoxy-1-[(5R)-7-(1,6-dimethylpyrazolo[3,4-b]pyridin-4-yl)-5-methyl-6,8-dihydro-5H-2,7-naphthyridin-3-yl]pyrrolidin-3-amine] — 4-fold higher, 52 nM
- Cc1cc(N2Cc3cnc(N4CC5(CNCCO5)C4)cc3[C@@H](C)C2)c2cnn(C)c2n1 [Example 79, 2-[(5R)-7-(1,6-dimethylpyrazolo[3,4-b]pyridin-4-yl)-5-methyl-6,8-dihydro-5H-2,7-naphthyridin-3-yl]-5-oxa-2,8-diazaspiro[3.5]nonane] — 1.8-fold higher, 23 nM
- Cc1cc(N2Cc3cnc(N4CC[C@@H](N)[C@H](F)C4)cc3[C@@H](C)C2)c2cnn(C)c2n1 [Example 80, (3R,4R)-3-fluoro-1-[(5R)-7-(1,6-dimethylpyrazolo[3,4-b]pyridin-4-yl)-5-methyl-6,8-dihydro-5H-2,7-naphthyridin-3-yl]piperidin-4-amine] — 2.6-fold higher, 34 nM
- COC[C@H]1CN(c2cc3c(cn2)CN(c2cc(C)nc4c2cnn4C)C[C@@H]3C)CCN1 [Example 81, (4R)-2-(1,6-dimethylpyrazolo[3,4-b]pyridin-4-yl)-4-methyl-6-[(3R)-3-(methoxymethyl)piperazin-1-yl]-3,4-dihydro-1H-2,7-naphthyridine] — 1.6-fold lower, 8 nM
